US20250100947A1, “NITROUS OXIDE INHIBITOR” (His Majesty the King in Right of New Zealand Acting Through …, priority 2021, published 2025)

Legend:
[1] = test system: N2O emissions from urine-treated pasture soil; assay: Field trial, static chamber N2O emissions from simulated cattle urine patches; settings: for Net emitted: control subtracted
Text: A trial site was fenced off and stock excluded for about 14 weeks, until the commencement of the field trials, to avoid interference from fresh dung and urine inputs and reduce spatial heterogeneity/variability from the previous uneven deposition of dung and urine.
Approximately two weeks before the commencement of the trial, pasture was mown to 50 mm height, 4 soil samples (to 100 mm depth) were collected for physicochemical characterisation and Field plots were established in a randomised complete block design with 5 treatments as shown in Table 1. Plot size was 2.5×2.5 m for all treatments with an additional buffer area of at least 0.5 m between adjacent plots.
Natural urine deposition was simulated with 2 L cattle urine (containing 8.35 g N L^−1) in large static chambers allowing for urine edge-effect. All solutions containing a N2O inhibitor were applied at the same rate (30 mL/Chambers; 600 L/ha). For all urine treatments, 2 L urine was poured to the central point of the chamber base area at a height of approximately 1.2 m and allowed to spread naturally. To mimic the “Spikey®” urine patch treatment, a spot-sprayer system (supplied by Pastoral Robotics Limited) was used for treating the urine patch in the large chambers. All the inhibitor compositions were applied to the relevant treatments within 4 h after urine application.
A static chamber technique was used to measure N2O emissions, and the methodology was based on that used in a previous published study on N2O emissions (Luo et al 2015). One week before the trial began, static chamber bases (80 cm diameter) were inserted into the soil. Herbage within the chamber base and the ring areas was cut to 50 mm above ground level before the application of the treatments.
Pre-treatment gas flux was taken from each chamber a day before the application of treatments to determine the spatial variability of background of N2O flux between the plots and to assist with interpretation of patterns of N2O flux from individual sampling plots post treatment application as a covariate for statistical analysis of post-treatment emissions.
Post treatment gas measurements were carried out at 2, 24 and 72 h after application of the urine and inhibitor compositions, twice a week for the first 8 weeks and thereafter weekly. The measurements were continued until the N2O flux values for treatment plots reached the background levels measured in the control plots. During weekly phases of N2O flux measurement, additional sampling occurred as soon as practical following rainfall events of greater than 10 mm of rain in the previous 24 h. On each sampling day, N2O measurements were carried out between 1000 and 1200 h. Gas samples from chamber headspace were taken during a cover period of 100 minutes at times t0, […] (or similar). Two background atmosphere samples were also taken on each sampling day at each site. […] The measurements of N2O emission from the treatment plots continued until the first week of September. During this period, 3 pasture harvests were taken, and herbage samples analysed for N content.
Nitrous oxide concentration of gas samples were analysed by gas chromatograph using a Shimadzu GC-17a gas chromatograph equipped with a 63Ni-electroncapture detector (oven, valve and detector temperatures were operated at 65, 100 and 280° C., respectively, using oxygen-free N as a carrier gas and connected to an automatic sampler capable of handling up to 120 samples, and a SRI 8610 automated gas chromatograph. Chamber temperatures were recorded at the beginning and end of the cover period and the average of the two readings were considered the chamber temperature for calculating gas flux. The increase in N2O concentration within the chamber headspace, for the gas samples collected at t0, t50 and t100 was generally linear (R2>0.90). Therefore, the hourly N2O fluxes will be calculated using linear regression and the ideal gas law according to Equation 1: […]

[2] = test system: soil potential denitrification (DEA) enzyme activity; assay: Soil denitrification enzyme activity (DEA) short-term incubation; type: biochemical
Protocol: Short-term incubation studies were conducted to determine the effect of the compound of the invention on soil potential denitrification (DEA) enzyme activity. Details of each assay are described in Zhong et al. (2015, 2016).
The denitrification assay involved testing the effect of five ALBSO treatments: 0 (water only), carrier (formic acid only), low (0.011 μg ALBSO g^−1 dry soil), high (0.046 μg ALBSO g^−1 dry soil) and very high (0.91 μg ALBSO g^−1 dry soil) at a common N rate delivered as KNO3.
The ALBSO treatments were formulated with an absolute minimum amount of formic acid needed to just dissolve the required amount of ALBSO into solution. Identical amounts of formic acid were used to formulate the carrier, low, high and very high ALBSO treatments, with the carrier containing only formic acid and water. The pH of carrier, low, high and very high ALBSO treatment solutions was identical and mildly acidic.
After a 4-hour incubation period, N2O concentrations were lower (P<0.008) for incubation vessels that had been treated with ALBSO. […] Typically, results for this kind of incubation become unreliable after 6 hours, however, the 8 hour sampling in case the high level of N addition allowed for a longer period of microbial activity.
A further incubation was performed to test the effect of the carrier as well as the high rate of ALBSO on denitrification enzyme activity.
The final incubation included a treatment where acetylene was not added. The use of acetylene gives further information on whether the ALBSO effect on denitrification is due to effects on enzymes linked to nirK and nirS (with acetylene) or nosZ (without acetylene) genes. […] Letters refer to ALBSO effects within acetylene treatments (LSD 5.3, n=3).

[3] = test system: NO3^− leaching from grazed pasture soil; assay: Field lysimeter study of nitrate leaching from cow urine; settings: for % Reduction of leaching due to inhibitor: compared to the urine only treatment, P<0.05; for Total leaching: cow urine 600 kg N ha^−1, inhibitor applied within 1 hour, DCD at 10 kg ha^−1, urine alone 358
Protocol: A field lysimeter study was conducted to examine the effects of albendazole sulfoxide on NO3^− leaching resulting from cow urine applied to a grazed pasture (at a loading rate of about 600 kg N ha^−1). The field lysimeter experiment was a randomized complete block design with the following treatments: • Control (no urine and no inhibitor) • Urine alone (600 kg N ha^−1) • Urine plus DCD (DCD solution at 10 kg ha^−1) • Urine plus albendazole sulfoxide (supplied by AgResearch Palmerston North)
Urine was collected from dairy cows that had been grazing an established ryegrass-white clover pasture. The cow urine was bulked and held at 4° C. for a few days prior to application. The urine was applied in a single application at an N loading rate of 600 kg N ha^−1 and a hydraulic loading rate of 10 L m^−2 to simulate dairy cow urine deposition. […] The treatments were replicated 6 times.
These urine and inhibitor treatments were also simultaneously applied to associated 0.5 m^2 plots so that soil samples could be taken throughout the trial to monitor mineral N transformations and moisture levels.
Leachate volumes were measured from the lysimeters when drainage occurred over the drainage period (May-October). Subsamples of leachate were collected and frozen at −20° C. prior to analysis for nitrate N(NO3^−N) and ammonium N(NH4^+—N) using a Skalar SAN^++ segmented auto flow analyser (Skalar Analytical B.V., Breda, Netherlands).

[4] = Urine + high concentration ALBSO (900 μg), UA1
[5] = Urine + low concentration ALBSO (266 μg), UA2

Structure (SMILES): CCC[S+]([O-])c1ccc2[nH]c(NC(=O)OC)nc2c1 (stereo not drawn) [ALBSO, methyl [5-(propane-1-sulfinyl)-1H-benzoimidazol-2-yl]-carbamate]
- Total emitted ([1]; Urine 2 L + high concentration ALBSO (900 μg in 0.054M formic acid), UA1, cumulative over 4 months): 3703 g N2O—N
- Total emitted ([1]; Urine 2 L + low concentration ALBSO (266 μg in 0.054M formic acid), UA2, cumulative over 4 months): 3147 g N2O—N
- EF3 (% of applied N emitted) [1, 4]: 0.84 % of applied N emitted
- Net emitted [1, 4]: 2807 g N2O—N
- EF3 (% of applied N emitted) [1, 5]: 0.68 % of applied N emitted
- Net emitted [1, 5]: 2251 g N2O—N
- Emissions from treated urine ([1]; urine treated with low concentration ALBSO composition): 3147 g N2O—N ha^−1
- ppm N2O after 4 h ([2]; High (0.046 μg ALBSO g^−1 dry soil), first incubation, n=3, H2O 138): 102 ppm N2O
- ppm N2O after 8 h ([2]; High (0.046 μg ALBSO g^−1 dry soil), first incubation, H2O 236): 217 ppm N2O
- N2O concentration after 4-hour incubation, acetylene not added ([2]; High ALBSO, final incubation, n=3, Acetylene No, H2O 97.3): 84.7a ppm N2O
- N2O concentration after 4-hour incubation, acetylene added ([2]; High ALBSO, final incubation, n=3, Acetylene Yes, H2O 96.9): 90.9a ppm N2O
- ppm N2O after 4 h ([2]; High rate of ALBSO, further incubation with carrier, n=4, H2O 97): 90 ppm N2O
- ppm N2O after 8 h ([2]; High rate of ALBSO, further incubation with carrier, n=4, H2O 137): 131 ppm N2O
- ppm N2O after 4 h ([2]; Low (0.011 μg ALBSO g^−1 dry soil), first incubation, n=3, H2O 138): 96 ppm N2O
- ppm N2O after 8 h ([2]; Low (0.011 μg ALBSO g^−1 dry soil), first incubation, H2O 236): 233 ppm N2O
- ppm N2O after 4 h ([2]; Very High (0.91 μg ALBSO g^−1 dry soil), first incubation, n=3, H2O 138): 86 ppm N2O
- ppm N2O after 8 h ([2]; Very High (0.91 μg ALBSO g^−1 dry soil), first incubation, H2O 236): 232 ppm N2O
- N2O concentrations after 4-hour incubation, treated vs untreated vessels ([2]; all ALBSO amounts, P<0.008, 28° C., anaerobic): lower
- Effect on reducing N2O over both acetylene treatments ([2]; final incubation, P=0.005): significant effect of ALBSO on reducing N2O
- % Reduction of leaching due to inhibitor [3]: 20%
- Total leaching [3]: 289 kg NO3^−—N ha^−1

Structure (SMILES): N#CN=C(N)N [DCD, dicyandiamide, reference compound]
- Total emitted ([1]; Urine 2 L (16.70 g N) + DCD (0.25 g N), UDCD, cumulative over 4-month measurement period): 3142 g N2O—N
- EF3 (% of applied N emitted) ([1]; Urine + DCD (0.25 g N), UDCD): 0.67 % of applied N emitted
- Net emitted ([1]; Urine + DCD (0.25 g N), UDCD): 2246 g N2O—N
- Emissions from treated urine ([1]; urine treated with DCD): 3142±300 g N2O—N ha^−1
- % Reduction of leaching due to inhibitor [3]: 30%
- Total leaching [3]: 253 kg NO3^−—N ha^−1
